For data set [1], the system named is HIV-1. The data set can be described thus: microbe, parasite or virus in culture.
A short description of the next data set: in vitro. To be noted: human.
The subject of data set [2] is HIV-1. To be noted: read-out: IC50 against HIV-1; cited from earlier work.
For data set [3] the following is noted: cited from earlier work.
The test system of a further data set is IAV. The experiment in a line: Anti-IAV bioassay. The format is cell-based. The conditions noted are these: Influenza A virus, read-out: Inhibition Rate (%) against IAV, positive control.
For the next data set, the system named is influenza A virus (IAV). The conditions noted are these: cited from earlier work.

Where two headings read alike, the source gives them in different places.

The source of these data is paper PMC6266505, “Limonoids Containing a C1–O–C29 Moiety: Isolation, Structural Modification, and Antiviral Activity” (Marine Drugs, 2018).

What is called IC50 is the concentration that gives 50% inhibition. As a reminder, the inhibition is the percentage by which the read-out fell short of the control. With `C/C=C(\C)C(=O)O[C@@H]1[C@@H]2C=C3[C@@H]4CC(=O)O[C@@H](c5ccoc5)[C@]4(C)CC[C@@H]3[C@]3(C)[C@@H](CC(=O)OC)[C@]1(C)CO[C@]23O` [Compound 6, granatumin L], the IC50 with HIV-1 [1] (Human immunodeficiency virus 1, SUP-T1, read-out: IC50 Value (μM) against HIV-1) is 19.23 ± 0.12 µM. The inhibition at 20 µM in the data set with HIV-1 [1] (Human immunodeficiency virus 1, SUP-T1, read-out: Inhibition Rate (20.0 μM) (%) against HIV-1) amounted to 67.1 ± 3.04%. The compound further returned a CC50 in “in vitro” above 100 µM.

Regarding `CC[C@H](C)C(=O)O[C@@H]1C(=O)[C@@]2(OC(=O)C(C)C)[C@@]3(O)C[C@@]1(C)[C@H](CC(=O)OC)[C@@]3(C)[C@H]1CC[C@@]3(C)[C@H](c4ccoc4)OC(=O)C[C@]34O[C@]142` [Krishnolide A], the IC50 in the data set on HIV-1 [2] was 17.4 ± 1.65 µM. The CC50 in data set [3] was 78.5 ± 1.69 µM.

In the case of `NC(=O)c1ncn([C@@H]2O[C@H](CO)[C@@H](O)[C@H]2O)n1` [ribavirin], the inhibition at 60 µM in the data set on IAV amounted to 87.5 ± 2.86%.

For the compound `COC(=O)C[C@@H]1[C@@]2(C)[C@H]3CC[C@]4(C)C(=C3[C@@]3(O)[C@@H](OC(C)=O)C(=O)[C@]1(C)C[C@@]23O)CC(=O)O[C@H]4c1ccoc1` [thaixylomolin I], the “antiviral activity against influenza A virus (IAV), in words” value (from here on “antiviral activity”) in the data set on influenza A virus (IAV) is “moderate antiviral activity”. The IC50 in the data set with influenza A virus (IAV) (read-out: IC50 against IAV) is 77.1 ± 8.7 µM.

As to `COC(=O)C[C@H]1[C@@]2(C)C[C@]3(O)[C@H](C(=O)[C@H]2OC(C)=O)C2=C4CC(=O)O[C@@H](c5ccoc5)[C@]4(C)CC[C@@H]2[C@]13C` [thaixylomolin K], the “antiviral activity” value in the data set on influenza A virus (IAV) is listed as “moderate antiviral activity”.

Take `COC(=O)C[C@H]1[C@@]2(C)C[C@]3(O)[C@H](C(=O)[C@H]2OC(C)=O)C2=C(CC[C@]4(C)C2=CC(=O)O[C@H]4c2ccoc2)[C@]13C` [thaixylomolin M]: the “antiviral activity” value in the data set on influenza A virus (IAV) is “moderate antiviral activity”.
